System: not listed separately
Assay: DNA delivery: raw luciferase expression (relative light units) of best-transfecting lipids
Assay type: cell-based
Settings: lipid/DNA 2.5 w/w; 300 ng of DNA per well
Description: Raw values for luciferase expression (relative lights units) of best-transfecting lipids at lipid/DNA (w/w) ratios listed. 300 ng of DNA was added per well.
In the case of `CCCCCCCCCCCCCCCCNC(=O)CCN(CCO)CCN(CCO)CCC(=O)NCCCCCCCCCCCCCCCC` [NP103], the “Raw values for luciferase expression” value is reported as 8798627 relative lights units.

Same assay, conditions: lipid/DNA 5 w/w; 300 ng of DNA per well
With `CCCCCCCCCCCCCCCCNC(=O)CCN(CCO)CCN(CCO)CCC(=O)NCCCCCCCCCCCCCCCC` [NP103] the “Raw values for luciferase expression” value was 308844 relative lights units.

Same assay, conditions: lipid/DNA 10 w/w; 300 ng of DNA per well
For `CCCCCCCCCCCCCCNC(=O)CCN(CCO)CCN(CCC(=O)NCCCCCCCCCCCCCC)CCC(=O)NCCCCCCCCCCCCCC` [NF109], the “Raw values for luciferase expression” value was 1151621 relative lights units.

Same assay, conditions: lipid/DNA 15 w/w; 300 ng of DNA per well
In the case of `CCCCCCCCCCCCCCNC(=O)CCN(CCO)CCN(CCC(=O)NCCCCCCCCCCCCCC)CCC(=O)NCCCCCCCCCCCCCC` [NF109], the “Raw values for luciferase expression” value is reported as 108854 relative lights units.

System: renilla and firefly luciferases
Assay: siRNA delivery: reporter-protein (renilla luciferase) knockdown relative to Lipofectamine 2000, firefly luciferase as viability control
Assay type: cell-based
Settings: lipid/RNA 2.5 w/w; 50 ng of siRNA per well
Description: Reporter-protein knockdown achieved by the top transfecting lipids relative to Lipofectamine™ 2000 (where negative values indicate improved knockdown). The assay accounts for toxicity, monitoring expression of both renilla and firefly luciferases, where the latter serves as viability control. For each lipid, 50 ng of siRNA was added per well at specific lipid/RNA w/w ratios (from top to bottom: 2.5, 5, 10, 15).
For `CCCCCCCCCCCCOC(=O)CCN(CCOCCO)CCC(=O)OCCCCCCCCCCCC` [LD31], the “Reporter-protein knockdown relative to Lipofectamine 2000 (negative values indicate improved knockdown)” value was 15.3558. In the case of `CCCCCCCCCCCCCOC(=O)CCN(CCCN(CCO)CCO)CCC(=O)OCCCCCCCCCCCCC` [LE87], the “Reporter-protein knockdown relative to Lipofectamine 2000 (negative values indicate improved knockdown)” value is reported as 5.504.

Same assay, conditions: lipid/RNA 5 w/w; 50 ng of siRNA per well
For `CCCCCCCCCCCCOC(=O)CCN(CCOCCO)CCC(=O)OCCCCCCCCCCCC` [LD31], the “Reporter-protein knockdown relative to Lipofectamine 2000 (negative values indicate improved knockdown)” value was −7.897. For `CCCCCCCCCCCCCOC(=O)CCN(CCCN(CCO)CCO)CCC(=O)OCCCCCCCCCCCCC` [LE87], the “Reporter-protein knockdown relative to Lipofectamine 2000 (negative values indicate improved knockdown)” value was −6.923.

Same assay, conditions: lipid/RNA 10 w/w; 50 ng of siRNA per well
For `CCCCCCCCCCCCOC(=O)CCN(CCOCCO)CCC(=O)OCCCCCCCCCCCC` [LD31], the “Reporter-protein knockdown relative to Lipofectamine 2000 (negative values indicate improved knockdown)” value was −15.5821. With `CCCCCCCCCCCCCOC(=O)CCN(CCCN(CCO)CCO)CCC(=O)OCCCCCCCCCCCCC` [LE87] the “Reporter-protein knockdown relative to Lipofectamine 2000 (negative values indicate improved knockdown)” value was −8.533.

Same assay, conditions: lipid/RNA 15 w/w; 50 ng of siRNA per well
In the case of `CCCCCCCCCCCCOC(=O)CCN(CCOCCO)CCC(=O)OCCCCCCCCCCCC` [LD31], the “Reporter-protein knockdown relative to Lipofectamine 2000 (negative values indicate improved knockdown)” value is reported as −16.8831. For `CCCCCCCCCCCCCOC(=O)CCN(CCCN(CCO)CCO)CCC(=O)OCCCCCCCCCCCCC` [LE87], the “Reporter-protein knockdown relative to Lipofectamine 2000 (negative values indicate improved knockdown)” value was −15.2929.

System: cos-7 cells
Assay: DNA transfection: luciferase expression relative to Lipofectamine 2000
Assay type: cell-based
Settings: 2.5 w/w lipid to DNA; 300 ng DNA per well; luciferase assay after 48 hours
In short: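 Lipid/DNA complexes, 300 ng luciferase DNA per well at 2.5-25 w/w lipid:DNA, were formed in sodium acetate/Optimem and added to overnight-seeded cos-7 cells. Luciferase was measured by Bright-Glo luminescence after 48 hours and quantified against an enzyme standard curve. Values are expressed as % of Lipofectamine 2000 at 2.5 w/w.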
In the case of `CCCCCCCCCCCCCOC(=O)CCN(CCCN(CCO)CCO)CCC(=O)OCCCCCCCCCCCCC` [LE87], the “% of the luciferase activity obtained from the use of Lipofectamine 2000” value (“% of the luciferase activity obtained” below) is reported as 10.5%.

Same assay, conditions: 5 w/w lipid to DNA; 300 ng DNA per well; luciferase assay after 48 hours
For `CCCCCCCCCCCCCOC(=O)CCN(CCCN(CCO)CCO)CCC(=O)OCCCCCCCCCCCCC` [LE87], the “% of the luciferase activity obtained” value was 9.0%.

Same assay, conditions: 10 w/w lipid to DNA; 300 ng DNA per well; luciferase assay after 48 hours
With `CCCCCCCCCCCCCOC(=O)CCN(CCCN(CCO)CCO)CCC(=O)OCCCCCCCCCCCCC` [LE87] the “% of the luciferase activity obtained” value was 38.4%.

Same assay, conditions: 15 w/w lipid to DNA; 300 ng DNA per well; luciferase assay after 48 hours
With `CCCCCCCCCCCCCOC(=O)CCN(CCCN(CCO)CCO)CCC(=O)OCCCCCCCCCCCCC` [LE87] the “% of the luciferase activity obtained” value was 4.3%.

Same assay, conditions: 20 w/w lipid to DNA; 300 ng DNA per well; luciferase assay after 48 hours
For `CCCCCCCCCCCCCOC(=O)CCN(CCCN(CCO)CCO)CCC(=O)OCCCCCCCCCCCCC` [LE87], the “% of the luciferase activity obtained” value was 0.0%.

Same assay, conditions: 25 w/w lipid to DNA; 300 ng DNA per well; luciferase assay after 48 hours
With `CCCCCCCCCCCCCOC(=O)CCN(CCCN(CCO)CCO)CCC(=O)OCCCCCCCCCCCCC` [LE87] the “% of the luciferase activity obtained” value was 0.0%.

Same assay, conditions: lipid/DNA 2.5 w/w; 300 ng Luciferase DNA per well; luciferase assay after 48 hours
With `CCCCCCCCCCCCOC(=O)CCN(CCOCCO)CCC(=O)OCCCCCCCCCCCC` [LD31] the “Luciferase expression as a percentage of that achieved using Lipofectamine 2000” value (shortened to “Luciferase expression as a percentage”) was 44.2%.

Same assay, conditions: lipid/DNA 2.5 w/w; 300 ng of DNA per well
With `CCCCCCCCCCCCOC(=O)CCN(CCOCCO)CCC(=O)OCCCCCCCCCCCC` [LD31] the “luciferase expression (second part of table, values relative to LIPO2000)” value was 44.2. In the case of `CCCCCCCCCCCCCCNC(=O)CCN(CCO)CCN(CCC(=O)NCCCCCCCCCCCCCC)CCC(=O)NCCCCCCCCCCCCCC` [NF109], the “luciferase expression (second part of table, values relative to LIPO2000)” value is reported as 205.2. In the case of `CCCCCCCCCCCCCCCCNC(=O)CCN(CCO)CCN(CCO)CCC(=O)NCCCCCCCCCCCCCCCC` [NP103], the “luciferase expression (second part of table, values relative to LIPO2000)” value is reported as 83.0.

Same assay, conditions: lipid/DNA 5 w/w; 300 ng Luciferase DNA per well; luciferase assay after 48 hours
With `CCCCCCCCCCCCOC(=O)CCN(CCOCCO)CCC(=O)OCCCCCCCCCCCC` [LD31] the “Luciferase expression as a percentage” value was 38.7%.

Same assay, conditions: lipid/DNA 5 w/w; 300 ng of DNA per well
With `CCCCCCCCCCCCOC(=O)CCN(CCOCCO)CCC(=O)OCCCCCCCCCCCC` [LD31] the “luciferase expression (second part of table, values relative to LIPO2000)” value was 38.7. With `CCCCCCCCCCCCCCNC(=O)CCN(CCO)CCN(CCC(=O)NCCCCCCCCCCCCCC)CCC(=O)NCCCCCCCCCCCCCC` [NF109] the “luciferase expression (second part of table, values relative to LIPO2000)” value was 46.2. With `CCCCCCCCCCCCCCCCNC(=O)CCN(CCO)CCN(CCO)CCC(=O)NCCCCCCCCCCCCCCCC` [NP103] the “luciferase expression (second part of table, values relative to LIPO2000)” value was 2.8.

Same assay, conditions: lipid/DNA 10 w/w; 300 ng Luciferase DNA per well; luciferase assay after 48 hours
With `CCCCCCCCCCCCOC(=O)CCN(CCOCCO)CCC(=O)OCCCCCCCCCCCC` [LD31] the “Luciferase expression as a percentage” value was 18.8%.

Same assay, conditions: lipid/DNA 10 w/w; 300 ng of DNA per well
For `CCCCCCCCCCCCOC(=O)CCN(CCOCCO)CCC(=O)OCCCCCCCCCCCC` [LD31], the “luciferase expression (second part of table, values relative to LIPO2000)” value was 18.8. In the case of `CCCCCCCCCCCCCCNC(=O)CCN(CCO)CCN(CCC(=O)NCCCCCCCCCCCCCC)CCC(=O)NCCCCCCCCCCCCCC` [NF109], the “luciferase expression (second part of table, values relative to LIPO2000)” value is reported as 1.7. With `CCCCCCCCCCCCCCCCNC(=O)CCN(CCO)CCN(CCO)CCC(=O)NCCCCCCCCCCCCCCCC` [NP103] the “luciferase expression (second part of table, values relative to LIPO2000)” value was 0.0.

Same assay, conditions: lipid/DNA 15 w/w; 300 ng Luciferase DNA per well; luciferase assay after 48 hours
For `CCCCCCCCCCCCOC(=O)CCN(CCOCCO)CCC(=O)OCCCCCCCCCCCC` [LD31], the “Luciferase expression as a percentage” value was 11.3%.

Same assay, conditions: lipid/DNA 15 w/w; 300 ng of DNA per well
In the case of `CCCCCCCCCCCCOC(=O)CCN(CCOCCO)CCC(=O)OCCCCCCCCCCCC` [LD31], the “luciferase expression (second part of table, values relative to LIPO2000)” value is reported as 11.3. In the case of `CCCCCCCCCCCCCCNC(=O)CCN(CCO)CCN(CCC(=O)NCCCCCCCCCCCCCC)CCC(=O)NCCCCCCCCCCCCCC` [NF109], the “luciferase expression (second part of table, values relative to LIPO2000)” value is reported as 0.0. In the case of `CCCCCCCCCCCCCCCCNC(=O)CCN(CCO)CCN(CCO)CCC(=O)NCCCCCCCCCCCCCCCC` [NP103], the “luciferase expression (second part of table, values relative to LIPO2000)” value is reported as 1.5.

Same assay, conditions: lipid/DNA 20 w/w; 300 ng Luciferase DNA per well; luciferase assay after 48 hours
With `CCCCCCCCCCCCOC(=O)CCN(CCOCCO)CCC(=O)OCCCCCCCCCCCC` [LD31] the “Luciferase expression as a percentage” value was 42.8%.

Same assay, conditions: lipid/DNA 20 w/w; 300 ng of DNA per well
In the case of `CCCCCCCCCCCCOC(=O)CCN(CCOCCO)CCC(=O)OCCCCCCCCCCCC` [LD31], the “luciferase expression (second part of table, values relative to LIPO2000)” value is reported as 42.8.

Same assay, conditions: lipid/DNA 25 w/w; 300 ng Luciferase DNA per well; luciferase assay after 48 hours
In the case of `CCCCCCCCCCCCOC(=O)CCN(CCOCCO)CCC(=O)OCCCCCCCCCCCC` [LD31], the “Luciferase expression as a percentage” value is reported as 174.1%.

Same assay, conditions: lipid/DNA 25 w/w; 300 ng of DNA per well
For `CCCCCCCCCCCCOC(=O)CCN(CCOCCO)CCC(=O)OCCCCCCCCCCCC` [LD31], the “luciferase expression (second part of table, values relative to LIPO2000)” value was 174.1.

Same assay, conditions: replicate set, 1st column; no head printed (2.5 w/w by the raw values)
For `CCCCCCCCCCCCCCNC(=O)CCN(CCO)CCN(CCC(=O)NCCCCCCCCCCCCCC)CCC(=O)NCCCCCCCCCCCCCC` [NF109], the “luciferase expression, second set of columns (replicate set of data)” value (from here on “luciferase expression, second set”) was 74.5. In the case of `CCCCCCCCCCCCCCCCNC(=O)CCN(CCO)CCN(CCO)CCC(=O)NCCCCCCCCCCCCCCCC` [NP103], the “luciferase expression, second set” value is reported as 2.1.

Same assay, conditions: replicate set, 2nd column; no head printed (5 w/w by the raw values)
With `CCCCCCCCCCCCCCNC(=O)CCN(CCO)CCN(CCC(=O)NCCCCCCCCCCCCCC)CCC(=O)NCCCCCCCCCCCCCC` [NF109] the “luciferase expression, second set” value was 22.5. For `CCCCCCCCCCCCCCCCNC(=O)CCN(CCO)CCN(CCO)CCC(=O)NCCCCCCCCCCCCCCCC` [NP103], the “luciferase expression, second set” value was 2.3.

Same assay, conditions: replicate set, 3rd column; no head printed (10 w/w by the raw values)
In the case of `CCCCCCCCCCCCCCNC(=O)CCN(CCO)CCN(CCC(=O)NCCCCCCCCCCCCCC)CCC(=O)NCCCCCCCCCCCCCC` [NF109], the “luciferase expression, second set” value is reported as 3.9. In the case of `CCCCCCCCCCCCCCCCNC(=O)CCN(CCO)CCN(CCO)CCC(=O)NCCCCCCCCCCCCCCCC` [NP103], the “luciferase expression, second set” value is reported as 3.8.

Same assay, conditions: replicate set, 4th column; no head printed (15 w/w by the raw values)
With `CCCCCCCCCCCCCCNC(=O)CCN(CCO)CCN(CCC(=O)NCCCCCCCCCCCCCC)CCC(=O)NCCCCCCCCCCCCCC` [NF109] the “luciferase expression, second set” value was 1.6. In the case of `CCCCCCCCCCCCCCCCNC(=O)CCN(CCO)CCN(CCO)CCC(=O)NCCCCCCCCCCCCCCCC` [NP103], the “luciferase expression, second set” value is reported as 1.4.

Reference: US9006487B2, “Amine-containing lipids and uses thereof” (Massachusetts Institute of Technology, priority 2005, dated 2015)
